Results: patent EP0220011A2, “Use of azabicloalkylbenzamides in the treatment of gastrointestinal motility disorders, migraine, emesis, cluster headaches, trigeminal neuralgia and arrhythmia” (BEECHAM GROUP PLC, priority 1985, dated 1987)

Experiments:
Type in all cases: in vivo
[1] = Intraluminal pressure in the Heidenhain pouch of the dog; settings: dose of O.Olmg/kg i.v.; fasted conscious dog, chronic Heidenhain pouch; for at least 4-5 minutes
Experimental: Pressure changes were recorded via a saline filled catheter inserted, with airtight closure, into the fistula of a chronic Heidenhain pouch of the previously fasted and lightly restrained conscious dog. The catheter was connected to a physiological pressure transducer and pressure changes recorded on a hot wire pen recorder. Compounds were administered when the motility was in a phase of relatively low activity and the dose range determined which induced an increase in the amplitude of rhythmical contractions for a period of at least 4-5 minutes.

[2] = Intragastric pressure in the rat; settings: dose of 0.13 mg/kg s.c.; fasted conscious restrained rats; 40 minute period following dosing
Experimental: Intragastric pressure changes were recorded from fasted conscious and restrained rats using a saline filled catheter inserted into the lumen of the stomach via a permanent gastric fistula. The catheter was connected to a physiological pressure transducer and pressure changes recorded on a hot wire pen recorder. An index of activity was obtained by measuring the average height of pressure waves during 10 minute periods. Values for 4 such periods were obtained during assessment of spontaneous activity prior to dosing and for the 40 minute period following dosing with compound or vehicle. The Student's " t " test was applied to the mean values obtained for activity prior to and post treatment. Groups of 10 animals were used for each treatment.

[3] = test system: von Bezold-Jarisch reflex evoked by 5-HT; assay: Antagonism of the von Bezold-Jarisch reflex; settings: iv; anaesthetised rat; reduces the 5-HT-evoked heart rate response to 50% of the control response
Experimental: The compounds were evaluated for antagonism of the von Bezold-Jarisch reflex evoked by 5-HT in the anaesthetised rat according to the following method: • Male rats, 250-350g, were anaesthetised with urethane (1.25g/kg intraperitoneally) and blood pressure and heart rate recorded as described by Fozard J.R. et al., J. Cardiovasc. Pharmacol. 2, 229-245 (1^80). A submaximal dose of 5-HT (usually 6ug/kg) was given repeatedly by the intravenous route and changes in heart rate quantified. Compounds were given intravenously and the concentration required to reduce the 5-HT-evoked response to 50% of the control response (ED50) was then determined.

For COc1cc(N)c(Br)cc1C(=O)NC1CC2CCC(C1)N2C (stereo not drawn) [Example 1, (endo)-4-Amino-5-bromo-2-methoxy-N-(8-methyl-8-aza-bicyclo[3,2,l]oct-3-yl) benzamide], the “increase in the amplitude of rhythmical contractions (intraluminal pressure)” value [1] was “active”.
For COc1cc(N)c(Cl)cc1C(=O)NC1CC2CCC(C1)N2C (stereo not drawn) [Compound No. 20, (endo)-4-amino-5-chloro-2-methoxy-N-(8-methyl-8-azabicyclo[3.2.1]octyl) benzamide], the “Intragastric pressure changes (average height of pressure waves)” value [2] was “active” and the ED50 [3] was 0.8 ± 0.2 µg/kg.
